Experimental data as given in PubChem BioAssay (NCI).
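Tested at 5 concentrations; 48 h exposure; 96-well plates; endpoints linearly interpolated, else capped at highest concentration. TGI denotes the concentration required for complete inhibition of growth.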

Legend:
Test in all cases: inhibition of tumour cell growth, NCI panel, 48 h
[1] = test system: 786-0 renal
[2] = test system: A549 NSCLC
[3] = test system: ACHN renal
[4] = test system: CAKI-1 renal
[5] = test system: CCRF-CEM leukemia
[6] = test system: COLO 205 colon
[7] = test system: DLD-1 colon
[8] = test system: DMS 114 small cell lung
[9] = test system: DMS 273 small cell lung
[10] = test system: EKVX NSCLC
[11] = test system: HCC-2998 colon
[12] = test system: HCT-116 colon
[13] = test system: HCT-15 colon
[14] = test system: HOP-62 NSCLC
[15] = test system: HT29 colon
[16] = test system: IGROV1 ovarian
[17] = test system: K-562 leukemia
[18] = test system: KM12 colon
[19] = test system: KM20L2 colon
[20] = test system: LOX IMVI melanoma
[21] = test system: LXFL 529 NSCLC
[22] = test system: M14 melanoma
[23] = test system: M19-MEL melanoma
[24] = test system: MALME-3M melanoma
[25] = test system: MOLT-4 leukemia
[26] = test system: NCI-H226 lung
[27] = test system: NCI-H23 lung
[28] = test system: NCI-H460 lung
[29] = test system: NCI-H522 lung
[30] = test system: OVCAR-3 ovarian
[31] = test system: OVCAR-4 ovarian
[32] = test system: OVCAR-5 ovarian
[33] = test system: OVCAR-8 ovarian
[34] = test system: RPMI-8226 leukemia
[35] = test system: SF-268 CNS
[36] = test system: SF-295 CNS
[37] = test system: SF-539 CNS
[38] = test system: SK-MEL-2 melanoma
[39] = test system: SK-MEL-28 melanoma
[40] = test system: SK-MEL-5 melanoma
[41] = test system: SK-OV-3 ovarian
[42] = test system: SN12C renal
[43] = test system: SNB-19 CNS
[44] = test system: SNB-75 CNS
[45] = test system: SNB-78 CNS
[46] = test system: SR leukemia
[47] = test system: SW-620 colon
[48] = test system: U251 CNS
[49] = test system: UACC-257 melanoma
[50] = test system: UACC-62 melanoma
[51] = test system: UO-31 renal
[52] = test system: XF 498 CNS
[53] = test system: A498 renal
[54] = test system: HL-60(TB) leukemia
[55] = test system: HOP-18 NSCLC
[56] = test system: HOP-92 NSCLC
[57] = test system: TK-10 renal
[58] = test system: RXF 393 renal

## N#Cc1c(C[n+]2ccccc2)c2ccccc2oc1=O
[1]
  TGI: > 100 µM
[2]
  TGI: > 100 µM
[3]
  TGI: > 100 µM
[4]
  TGI: > 100 µM
[5]
  TGI: > 100 µM
[6]
  TGI: > 100 µM
[7]
  TGI: > 100 µM
[8]
  TGI: > 100 µM
[9]
  TGI: > 100 µM
[10]
  TGI: > 100 µM
[11]
  TGI: > 100 µM
[12]
  TGI: > 100 µM
[13]
  TGI: > 100 µM
[14]
  TGI: > 100 µM
[15]
  TGI: > 100 µM
[16]
  TGI: > 100 µM
[17]
  TGI: > 100 µM
[18]
  TGI: > 100 µM
[19]
  TGI: > 100 µM
[20]
  TGI: > 100 µM
[21]
  TGI: > 100 µM
[22]
  TGI: > 100 µM
[23]
  TGI: > 100 µM
[24]
  TGI: > 100 µM
[25]
  TGI: > 100 µM
[26]
  TGI: > 100 µM
[27]
  TGI: > 100 µM
[28]
  TGI: > 100 µM
[29]
  TGI: > 100 µM
[30]
  TGI: > 100 µM
[31]
  TGI: > 100 µM
[32]
  TGI: > 100 µM
[33]
  TGI: > 100 µM
[34]
  TGI: > 100 µM
[35]
  TGI: > 100 µM
[36]
  TGI: > 100 µM
[37]
  TGI: > 100 µM
[38]
  TGI: > 100 µM
[39]
  TGI: > 100 µM
[40]
  TGI: > 100 µM
[41]
  TGI: > 100 µM
[42]
  TGI: > 100 µM
[43]
  TGI: > 100 µM
[44]
  TGI: > 100 µM
[45]
  TGI: > 100 µM
[46]
  TGI: > 100 µM
[47]
  TGI: > 100 µM
[48]
  TGI: > 100 µM
[49]
  TGI: > 100 µM
[50]
  TGI: > 100 µM
[51]
  TGI: > 100 µM
[52]
  TGI: > 100 µM

## NC(=O)c1csc(C2CCC(CO)O2)n1 (stereo not drawn)
[1]
  TGI: > 100 µM
[53]
  TGI: > 100 µM
[2]
  TGI: > 100 µM
[3]
  TGI: > 100 µM
[4]
  TGI: > 100 µM
[5]
  TGI: > 100 µM
[6]
  TGI: > 100 µM
[8]
  TGI: > 100 µM
[9]
  TGI: > 100 µM
[10]
  TGI: > 100 µM
[11]
  TGI: > 100 µM
[12]
  TGI: > 100 µM
[13]
  TGI: > 100 µM
[54]
  TGI: > 100 µM
[55]
  TGI: > 100 µM
[14]
  TGI: > 100 µM
[56]
  TGI: > 100 µM
[15]
  TGI: > 100 µM
[16]
  TGI: > 100 µM
[17]
  TGI: > 100 µM
[18]
  TGI: > 100 µM
[19]
  TGI: > 100 µM
[20]
  TGI: > 100 µM
[21]
  TGI: > 100 µM
[22]
  TGI: > 100 µM
[23]
  TGI: > 100 µM
[24]
  TGI: > 100 µM
[25]
  TGI: > 100 µM
[26]
  TGI: > 100 µM
[27]
  TGI: > 100 µM
[28]
  TGI: > 100 µM
[29]
  TGI: > 100 µM
[30]
  TGI: > 100 µM
[31]
  TGI: > 100 µM
[32]
  TGI: > 100 µM
[33]
  TGI: > 100 µM
[34]
  TGI: > 100 µM
[35]
  TGI: > 100 µM
[36]
  TGI: > 100 µM
[37]
  TGI: > 100 µM
[38]
  TGI: > 100 µM
[39]
  TGI: > 100 µM
[41]
  TGI: > 100 µM
[42]
  TGI: > 100 µM
[43]
  TGI: > 100 µM
[45]
  TGI: > 100 µM
[47]
  TGI: > 100 µM
[57]
  TGI: > 100 µM
[48]
  TGI: > 100 µM
[49]
  TGI: > 100 µM
[50]
  TGI: > 100 µM
[51]
  TGI: > 100 µM

## O=C1CCN2CCC(=O)c3c2c(cc2ccccc32)N1
[1]
  TGI: > 100 µM
[53]
  TGI: > 100 µM
[2]
  TGI: > 100 µM
[3]
  TGI: > 100 µM
[4]
  TGI: > 100 µM
[5]
  TGI: > 100 µM
[6]
  TGI: > 100 µM
[7]
  TGI: > 100 µM
[8]
  TGI: > 100 µM
[9]
  TGI: > 100 µM
[10]
  TGI: > 100 µM
[11]
  TGI: > 100 µM
[12]
  TGI: > 100 µM
[13]
  TGI: > 100 µM
[14]
  TGI: > 100 µM
[15]
  TGI: > 100 µM
[16]
  TGI: > 100 µM
[17]
  TGI: > 100 µM
[18]
  TGI: > 100 µM
[19]
  TGI: > 100 µM
[20]
  TGI: > 100 µM
[21]
  TGI: > 100 µM
[22]
  TGI: > 100 µM
[23]
  TGI: > 100 µM
[24]
  TGI: > 100 µM
[25]
  TGI: > 100 µM
[26]
  TGI: > 100 µM
[28]
  TGI: > 100 µM
[29]
  TGI: > 100 µM
[30]
  TGI: > 100 µM
[32]
  TGI: > 100 µM
[33]
  TGI: > 100 µM
[34]
  TGI: > 100 µM
[58]
  TGI: > 100 µM
[35]
  TGI: > 100 µM
[36]
  TGI: > 100 µM
[37]
  TGI: > 100 µM
[38]
  TGI: > 100 µM
[40]
  TGI: > 100 µM
[41]
  TGI: > 100 µM
[42]
  TGI: > 100 µM
[43]
  TGI: > 100 µM
[44]
  TGI: > 100 µM
[45]
  TGI: > 100 µM
[47]
  TGI: > 100 µM
[57]
  TGI: > 100 µM
[48]
  TGI: > 100 µM
[49]
  TGI: > 100 µM
[50]
  TGI: > 100 µM
[51]
  TGI: > 100 µM
[52]
  TGI: 93.5 µM

## Cc1nc2c(n1-c1ccccc1)C(=O)c1ccccc1C2=O
[1]
  TGI: > 100 µM
[53]
  TGI: > 100 µM
[2]
  TGI: > 100 µM
[3]
  TGI: > 100 µM
[4]
  TGI: > 100 µM
[5]
  TGI: > 100 µM
[7]
  TGI: > 100 µM
[8]
  TGI: 61.3 µM
[9]
  TGI: > 100 µM
[10]
  TGI: > 100 µM
[11]
  TGI: > 100 µM
[12]
  TGI: 73.1 µM
[13]
  TGI: > 100 µM
[54]
  TGI: 45.1 µM
[14]
  TGI: > 100 µM
[15]
  TGI: > 100 µM
[17]
  TGI: > 100 µM
[18]
  TGI: > 100 µM
[22]
  TGI: > 100 µM
[23]
  TGI: 40.4 µM
[24]
  TGI: 34.2 µM
[25]
  TGI: > 100 µM
[26]
  TGI: > 100 µM
[27]
  TGI: > 100 µM
[28]
  TGI: > 100 µM
[29]
  TGI: 71.8 µM
[30]
  TGI: 54.1 µM
[31]
  TGI: > 100 µM
[32]
  TGI: > 100 µM
[33]
  TGI: > 100 µM
[58]
  TGI: > 100 µM
[35]
  TGI: > 100 µM
[36]
  TGI: > 100 µM
[37]
  TGI: > 100 µM
[38]
  TGI: > 100 µM
[39]
  TGI: > 100 µM
[40]
  TGI: > 100 µM
[41]
  TGI: > 100 µM
[42]
  TGI: > 100 µM
[43]
  TGI: > 100 µM
[44]
  TGI: > 100 µM
[45]
  TGI: > 100 µM
[46]
  TGI: > 100 µM
[47]
  TGI: > 100 µM
[57]
  TGI: > 100 µM
[48]
  TGI: > 100 µM
[49]
  TGI: 51.5 µM
[50]
  TGI: > 100 µM
[51]
  TGI: > 100 µM

## CCN(CC)CCCC(C)Nc1cc(-c2ccccc2)nc2cc(OC)ccc12 (stereo not drawn)
[53]
  TGI: 14 µM
[3]
  TGI: 29.8 µM
[5]
  TGI: 11.4 µM
[6]
  TGI: 13.4 µM
[8]
  TGI: 21.8 µM
[11]
  TGI: 2.41 µM
[54]
  TGI: 7.04 µM
[14]
  TGI: 19.4 µM
[56]
  TGI: 11.1 µM
[15]
  TGI: 4.83 µM
[16]
  TGI: 41.9 µM
[17]
  TGI: 5.7 µM
[18]
  TGI: 22.3 µM
[19]
  TGI: 7.89 µM
[21]
  TGI: 19.9 µM
[22]
  TGI: 3.52 µM
[23]
  TGI: 27.5 µM
[24]
  TGI: 22.4 µM
[25]
  TGI: 8.24 µM
[27]
  TGI: 32.1 µM
[28]
  TGI: 14.7 µM
[29]
  TGI: 19.9 µM
[30]
  TGI: 34.5 µM
[31]
  TGI: 18.7 µM
[32]
  TGI: 7.97 µM
[34]
  TGI: 5.77 µM
[35]
  TGI: 32.9 µM
[36]
  TGI: 21.1 µM
[37]
  TGI: 17.7 µM
[38]
  TGI: 26.3 µM
[39]
  TGI: 20.5 µM
[41]
  TGI: 37.5 µM
[44]
  TGI: 25.9 µM
[45]
  TGI: 18 µM
[46]
  TGI: 12.1 µM
[48]
  TGI: 15.8 µM
[49]
  TGI: 35.6 µM
[50]
  TGI: 36.6 µM
[51]
  TGI: 9.22 µM
